Series [1] relates to NCI-H460 cells. The series is described as follows: cells. The class given is cell-based, Human. As to conditions: for IC50: Homo sapiens, NCI-H460, H460 cells, read-out: IC50; for cytotoxicity / activity for H460 cells, in words: comparison. On the procedure:
Human non-small cell lung cancer cells (NCI-H460) were purchased from the American Type Culture Collection (Manassas, Va.). NCI-H460 cells were cultured in RPMI 1640 medium supplemented with 10% bovine fetal serum (FBS), 2 mM L-glutamine and 100-units/ml penicillin/streptomycin. All experiments with NCI-H460 cells were performed in medium enriched with 1% FBS serum, 2 mM L-glutamine and 100-units/ml penicillin/streptomycin. 1% FBS was used due to existing concerns about digitoxin binding to serum proteins.
Cells were seeded overnight in 96 well plates at a concentration of 1×10^4 cells/well, and then treated for 48 h with a log10 scale dilution series of the glycosylated CS compounds (e.g., digitoxin or D6-MA) dissolved in sterile filtered DMSO. Subsequently, 10 μl of 5 mg/ml MTT reagent was added to each well and then incubated for 4 h at 37° C. Isopropanol acidified with 0.04 N HCl was used to dissolve converted dye. Absorbance at 570 nm was measured using an Automated Microplate Reader ELx800 (BioTek, Winooski, Vt.). Each experiment was conducted 4 times with 4 replicate wells per concentration.
All results are presented as mean±standard deviation. For cell viability, ATPase activity and apoptosis assays, dose-response curves and concentrations that caused 50% effect (i.e. IC50) were calculated for the prepared compounds listed in Tables 1-3 in all the cell lines tested using non-linear regression analysis in GraphPad Prism 5.0 (San Diego, Calif.). Two-way analysis of variance (ANOVA) and unpaired two-tailed Student's t-test with α=0.05 were performed to compare the effect of compounds and administered dose on cell viability, apoptosis and quantified protein expression data. Post-hoc Tukey-Kramer HSD tests were conducted on significant ANOVA results. Results were considered significant when p≦0.05.

Series [2] concerns HCMV. The series is described as follows: Anti-CMV activity assay, inhibition of HCMV replication in infected HFFs. The class given is cell-based, human Cytomegalovirus (HCMV). As to conditions: anti-HCMV activity in infected HFFs; read-out: EC50. On the procedure:
It has been observed that the infection of human foreskin fibroblasts (HFF) cells with HCMV causes an up regulation of the α3-isoform of the Na^+/K^+-Pump. Therefore the inhibition of HCMV replication by the compounds described herein was tested using procedure described by Cai, H. et al., in Med. Chem. Lett. 2014, 5, 395-399, which is incorporated by reference in its entirety. Generally, inhibition of Towne HCMV: pp28-luciferase activity was measured in cell lysates of HCMV-infected HFFs collected at 72 h post infection (hpi). Virus DNA yield in supernatants of HCMV-infected cells collected at 96 hpi was measured by real-time PCR. Plaque reduction assay performed at 8 days postinfection. Data represent mean values (±SD) of triplicate determinations from three independent experiments.
Inhibition of TB40 HCMV: HFFs were infected with HCMV-TB40 strain at MOI of 1 pfu/cell and treated with compounds listed in Tables 1-3 for 3 days.
The glycosylated cardiotonic steroid compounds were tested for their anti-cytomegalovirus (CMV) activity. Specifically, the compounds were tested for the ability to inhibit HCMV replication. For each compound, the anti-HCMV activity in infected HFFs was expressed as EC50, whereas cytotoxicity in noninfected HFFs was expressed as CC50. Selectivity index (SI), defined as CC50/EC50, was calculated for each compound.

Read-outs that look alike come from different tables or passages of the source.

As usually defined, the IC50 is the concentration at which inhibition is half-maximal. In general, EC50 refers to the concentration needed to bring the measured effect to its halfway point.

Regarding `CC1O[C@@H](O[C@H]2CCC3(C)C(CC[C@@H]4C3CCC3(C)[C@@H](C5=CC(=O)OC5)CC[C@]43O)C2)C(O)C(O)[C@H]1N` (stereo in doubt) [Compound 2.1, digitoxigenin α-L-4-amino-rhamnopyranoside], the half-inhibitory concentration (IC50) in series [1] (Table 5, compounds of Table 2) stood at 5.1 nM. In addition, in series [1], the “cytotoxicity / activity for H460 cells, in words” value (shortened to “cytotoxicity / activity”) was “improved cytotoxicity”.

With `CC1O[C@@H](OC2C(O)[C@H](O[C@H]3CCC4(C)C(CC[C@@H]5C4CCC4(C)[C@@H](C6=CC(=O)OC6)CC[C@]54O)C3)OC(C)[C@@H]2O)C(O)C(O)[C@H]1O` (stereo in doubt) [Compound 2.3, digitoxigenin α-L-rhamnopyranosyl-(1 → 3)-α-L-rhamnopyranoside], the IC50 in series [1] (Table 5, compounds of Table 2) came to 45.5 nM. The “cytotoxicity / activity” value in series [1] is “does not significantly reduce activity”.

On to `CC1O[C@H](OC2C(O)[C@H](O[C@H]3CCC4(C)C(CC[C@@H]5C4CCC4(C)[C@@H](C6=CC(=O)OC6)CC[C@]54O)C3)OC(C)[C@@H]2O)C(O)C(O)[C@@H]1O` (stereo in doubt) [Compound 2.4, digitoxigenin α-D-rhamnopyranosyl-(1 → 3)-α-L-rhamnopyranoside], for which the IC50 in series [1] (Table 5, compounds of Table 2) turned out to be 332 nM.

On to `CC1O[C@H](OC2C(O)[C@H](OC3C(O)[C@H](O[C@H]4CCC5(C)C(CC[C@@H]6C5CCC5(C)[C@@H](C7=CC(=O)OC7)CC[C@]65O)C4)OC(C)[C@@H]3O)OC(C)[C@@H]2O)C(O)C(O)[C@@H]1O` (stereo in doubt) [Compound 2.9, digitoxigenin α-D-rhamnopyranosyl-(1 → 3)-α-L-rhamnopyranosyl-(1 → 3)-α-L-rhamnopyranoside], for which, in series [1] (Table 5, compounds of Table 2), the IC50 is 86 nM.

On to `CC1O[C@@H](OC2C(O)[C@H](OC3C(O)[C@H](O[C@H]4CCC5(C)C(CC[C@@H]6C5CCC5(C)[C@@H](C7=CC(=O)OC7)CC[C@]65O)C4)OC(C)[C@@H]3O)OC(C)[C@@H]2O)C(O)C(O)[C@H]1O` (stereo in doubt) [Compound 2.10, digitoxigenin α-L-rhamnopyranosyl-(1 → 3)-α-L-rhamnopyranosyl-(1 → 3)-α-L-rhamnopyranoside], for which, in series [1] (Table 5, compounds of Table 2), the concentration for half-maximal inhibition (IC50) came to 50.6 nM.

With `C[C@@H]1O[C@@H](O[C@H]2CC[C@@]3(C)[C@H](CC[C@@H]4[C@@H]3C[C@@H](O)[C@]3(C)[C@@H](C5=CC(=O)OC5)CC[C@]43O)C2)CC[C@H]1O` (stereo in doubt) [Compound 3.3, digoxigenin α-L-amecitopyranoside], the IC50 in series [1] (Table 6, compounds of Table 3) worked out at 54 nM. The “cytotoxicity / activity” value in series [1] is reported as “more active than the diastereomeric α-D-sugars”.

As to `C[C@@H]1O[C@@H](O[C@H]2CC[C@@]3(C)[C@H](CC[C@@H]4[C@@H]3C[C@@H](O)[C@]3(C)[C@@H](C5=CC(=O)OC5)CC[C@]43O)C2)[C@H](O)[C@H](O)[C@H]1O` (stereo in doubt) [Compound 3.7, digoxigenin α-L-rhamnopyranoside], the IC50 in series [1] (Table 6, compounds of Table 3) was 19 nM. In addition, the “cytotoxicity / activity” value in series [1] is reported as “more active than the diastereomeric α-D-sugars”.

Consider `CC1O[C@@H](O[C@H]2CCC3(C)C(CC[C@@H]4C3CCC3(C)[C@@H](C5=CC(=O)OC5)CC[C@]43O)C2)CC[C@H]1N` (stereo partly drawn) [Compound 2.2, digitoxigenin α-L-4-amino-amecitopyranoside], for which the IC50 in series [1] (Table 5, compounds of Table 2) was 3.1 nM. The “cytotoxicity / activity” value in series [1] is given as “improved cytotoxicity”.

For `CC1OC(O[C@H]2CCC3(C)C(CCC4C3CCC3(C)[C@@H](C5=CC(=O)OC5)CC[C@]43O)C2)C(O)C(OC2CC[C@@H](O)C(C)O2)[C@H]1O` (stereo partly drawn) [Compound 2.5, [2,3-dihydro-4-hydroxy-α-L-Amip-(1→3)-2,4-dihydroxy-α-L-Rhap]-Dig], the IC50 in series [1] (Table 5, compounds of Table 2) worked out at 389 nM.

For `CC1OC(O[C@H]2CCC3(C)C(CCC4C3CCC3(C)[C@@H](C5=CC(=O)OC5)CC[C@]43O)C2)C(O)C(OC2CC[C@H](O)C(C)O2)[C@H]1O` (stereo partly drawn) [Compound 2.6, [2,3-dihydro-4-hydroxy-α-D-Amip-(1→3)-2,4-dihydroxy-α-L-Rhap]-Dig], the IC50 in series [1] (Table 5, compounds of Table 2) worked out at 651 nM.

Regarding `CC1O[C@H](O[C@H]2C(C)O[C@@H](O[C@H]3CCC4(C)C(CC[C@@H]5C4CCC4(C)[C@@H](C6=CC(=O)OC6)CC[C@]54O)C3)C(O)C2O)C(O)C(O)[C@@H]1O` (stereo partly drawn) [Compound 2.7, digitoxigenin α-D-rhamnopyranosyl-(1 → 4)-α-L-rhamnopyranoside], in series [1] (Table 5, compounds of Table 2), the IC50 was determined as 70 nM. In addition, the “cytotoxicity / activity” value in series [1] is given as “much greater activity”.

For `C[C@H]1O[C@H](O[C@H]2CC[C@@]3(C)[C@H](CC[C@@H]4[C@@H]3C[C@@H](O)[C@]3(C)[C@@H](C5=CC(=O)OC5)CC[C@]43O)C2)CC[C@@H]1O` [Compound 3.1], the IC50 in series [1] (Table 6, compounds of Table 3) was found to be 253 nM.

In the case of `C[C@H]1O[C@H](O[C@H]2CC[C@@]3(C)[C@H](CC[C@@H]4[C@@H]3C[C@@H](O)[C@]3(C)[C@@H](C5=CC(=O)OC5)CC[C@]43O)C2)[C@@H](O)[C@@H](O)[C@@H]1O` [Compound 3.2], the IC50 in series [1] (Table 6, compounds of Table 3) stood at 486 nM.

`CC(=O)O[C@@H]1C[C@H]2[C@@H](CC[C@@H]3C[C@@H](O[C@H]4CC[C@@H](O)[C@H](C)O4)CC[C@@]32C)[C@@]2(O)CC[C@H](C3=CC(=O)OC3)[C@@]12C` [Compound 3.4]: in series [1] (Table 6, compounds of Table 3), the IC50 was 3440 nM.

Regarding `C[C@@H]1O[C@@H](O[C@H]2CC[C@@]3(C)[C@H](CC[C@@H]4[C@@H]3C[C@@H](OC(=O)C(C)(C)C)[C@]3(C)[C@@H](C5=CC(=O)OC5)CC[C@]43O)C2)CC[C@H]1O` [Compound 3.5], the IC50 in series [1] (Table 6, compounds of Table 3) was at least 50000 nM. The “cytotoxicity / activity” value in series [1] is “greatly reduced activity”.

For `C[C@@H]1O[C@@H](O[C@H]2CC[C@@]3(C)[C@H](CC[C@@H]4[C@@H]3C[C@@H](O[Si](C)(C)C(C)(C)C)[C@]3(C)[C@@H](C5=CC(=O)OC5)CC[C@]43O)C2)CC[C@H]1O` [Compound 3.6], in series [1] (Table 6, compounds of Table 3), the IC50 worked out at 29700 nM.

Take `CC(=O)O[C@@H]1C[C@H]2[C@@H](CC[C@@H]3C[C@@H](O[C@@H]4O[C@@H](C)[C@H](O)[C@@H](O)[C@H]4O)CC[C@@]32C)[C@@]2(O)CC[C@H](C3=CC(=O)OC3)[C@@]12C` [Compound 3.8]: the IC50 in series [1] (Table 6, compounds of Table 3) amounted to 5980 nM.

With `C[C@@H]1O[C@@H](O[C@H]2CC[C@@]3(C)[C@H](CC[C@@H]4[C@@H]3C[C@@H](OC(=O)CCl)[C@]3(C)[C@@H](C5=CC(=O)OC5)CC[C@]43O)C2)[C@H](O)[C@H](O)[C@H]1O` [Compound 3.9], the IC50 in series [1] (Table 6, compounds of Table 3) stood at 105 nM.

On to `C[C@@H]1O[C@@H](O[C@H]2CC[C@@]3(C)[C@H](CC[C@@H]4[C@@H]3C[C@@H](OC(=O)C(C)(C)C)[C@]3(C)[C@@H](C5=CC(=O)OC5)CC[C@]43O)C2)[C@H](O)[C@H](O)[C@H]1O` [Compound 3.10], for which the half-maximal inhibitory concentration (IC50) in series [1] (Table 6, compounds of Table 3) was at least 50000 nM. Further, in series [1], the “cytotoxicity / activity” value is “greatly reduced activity”.

In the case of `C[C@@H]1O[C@@H](O[C@H]2CC[C@@]3(C)[C@H](CC[C@@H]4[C@@H]3C[C@@H](O[Si](C)(C)C(C)(C)C)[C@]3(C)[C@@H](C5=CC(=O)OC5)CC[C@]43O)C2)[C@H](O)[C@H](O)[C@H]1O` [Compound 3.11], the IC50 in series [1] (Table 6, compounds of Table 3) is 2250 nM.

For the molecule α-D-Mannose, the half-maximal effective concentration (EC50) in series [2] was determined as 7.31 ± 0.12 nM.
